# Source: publication PMC12363935, “Unc-51 Like Kinase 3 (ULK3) is essential for autophagy and cell survival in multiple myeloma” (Research Square, 2025)
# Values joined by “and” are separate entries in the source; they are usually repeats but may differ in a detail not shown here. Equal values may be shown once.
# System: primary CD138+ MM cells
# Experiment: EMMA ex vivo platform, live cell imaging, 96 hours, collagen matrix with bone marrow stroma and patient plasma
# Type: cell-based
# Design: scale not given here
# Source text: For clinical robustness, we tested the activity of MA9 in MM patient samples using our ex vivo mathematical myeloma advisor (EMMA) platform (Supplementary Table 1). […]
# For these assays, we used a novel EMMA platform developed at Moffitt. Further details are included in the supplemental Materials. […]
# 400 Ex vivo drug sensitivity characterization
# 401 An ex vivo assay was used to quantify the chemosensitivity of primary MM cells. Fresh BM
# 402 aspirate cells were enriched for CD138+ expression using Miltenyi (Bergisch Gladbach, Germany)
# MM cells (CD138+) were seeded in Corning
# 404 Cell BIND 384 well plates (Corning, NY) with collagen I and previously established human-
# 407 inactivated), penicillin/streptomycin, and patient-derived plasma (10%, freshly obtained from
# 409 added using a robotic plate handler so that every drug/combination was tested at 5 (fixed
# 410 concentration ratio, for combinations) concentrations (1:3 serial dilution) in two replicates.
# 411 Negative controls (supplemented growth media with and without the vehicle control dimethyl
# 412 sulfoxide [DMSO]) were included, as well as positive controls for each drug (cell line MM1.S at
# 413 highest drug concentration). Plates were placed in a motorized stage microscope (EVOS Auto FL,
# 414 Life Technologies, Carlsbad, CA) equipped with an incubator and maintained at 5% CO2 and 37
# 415 °C. […]
# Digital image analysis computes the percent
# 418 viability of MM cells for each time point and experimental condition (drug and concentration)
structure (smiles),measurement,setting,value
"CC(C)C[C@H](NC(=O)[C@H](CCc1ccccc1)NC(=O)CN1CCOCC1)C(=O)N[C@@H](Cc1ccccc1)C(=O)N[C@@H](CC(C)C)C(=O)[C@@]1(C)CO1 [CFZ, carfilzomib]",AUC,"Pt620, NDMM",36.78
same,AUC,"Pt622, LRRMM",32.89
same,AUC,"Pt625, NDMM",36.25
same,AUC,"Pt636, ERRMM",53.52
same,AUC,"Pt638, NDMM",44.52
same,AUC,"Pt639, NDMM",52.97
same,AUC,"Pt648, LRMM",48.435
same,AUC,"Pt652, LRMM",67.924
same,AUC,"Pt653, LRMM",60.160
same,AUC,"Pt655, LRMM",37.063 and 37.06
same,AUC,"Pt663, LRMM",48.477 and 48.48
same,AUC,"Pt665, LRMM",52.826 and 52.83
same,AUC,"Pt666, LRMM",40.984 and 40.98
same,AUC,"Pt669, ERMM",48.58
same,AUC,"Pt672, NDMM",56.496 and 56.5
same,AUC,"Pt677, NDMM",38.487 and 37.936
same,AUC,"Pt680, ERMM",43.762 and 43.248 and 43.76
same,AUC,"Pt685, ERMM",44.316 and 44.32
same,AUC,"Pt689, NDMM",43.578
same,AUC,"Pt691, LRMM",40.781 and 40.78
same,AUC,"Pt693, SMOL",97.333 and 97.33
same,AUC,"Pt694, NDMM",49.029 and 49.03
same,AUC,"Pt695, LRMM",54.535 and 54.53
same,AUC,"Pt697, NDMM",45.229 and 45.23
same,AUC,"Pt700, NDMM",48.455 and 54.337 and 54.34
same,AUC,"Pt707, LRMM",60.754 and 60.75
same,AUC,"Pt718, SMOL",58.31
same,AUC,"Pt737, MGUS",45.483
same,AUC,"Pt738, NDMM",52.453 and 52.45
same,AUC,"Pt740, SMOL",45.352
same,AUC,"Pt745, NDMM",68.911
same,AUC,"Pt765, LRRMM",59.77
same,AUC,"Pt773, LRRMM",32.99
same,AUC,"Pt808, LRRMM",47.11
same,AUC,"Pt814, LRRMM",62.23
same,AUC,"Pt821, NDMM",54.79
same,AUC,"Pt822, ERRMM",62.96
same,AUC,"Pt825, NDMM",59.86
same,AUC,"Pt830, ERRMM",61.41
same,AUC,"Pt849, LRRMM",99.06
same,AUC,"Pt852, NDMM",28.629
same,AUC,"Pt853, ERMM",62.247 and 58.956
same,AUC,"Pt856, NDMM",48.272 and 48.27
same,AUC,"Pt865, LRMM",60.759 and 60.76
same,AUC,"Pt866, NDMM",75.161 and 75.16
same,AUC,"Pt875, NDMM",41.904 and 41.9
same,AUC,"Pt885, NDMM",51.382 and 45.860 and 51.38
same,AUC,"Pt888, LRMM",51.003 and 51
same,AUC,"Pt893, LRMM",92.226
same,AUC,"Pt899, SMOL",53.140
same,AUC,"Pt906, NDMM",58.079 and 58.08
same,AUC,"Pt909, LRMM",32.841
same,AUC,"Pt912, PCL",23.632
same,AUC,"Pt917, LRMM",75.009
same,AUC,"Pt920, LRMM",39.820
same,AUC,"Pt923, LRMM",54.728 and 54.73
same,AUC,"Pt932, LRMM",43.433
same,AUC,"Pt933, LRMM",54.495 and 54.49
same,AUC,"Pt935, NDMM",46.326 and 46.33
same,AUC,"Pt936, LRMM",50.956
same,AUC,"Pt937, NDMM",51.703 and 49.814
same,AUC,"Pt940, LRMM",63.001
same,AUC,"Pt945, LRMM",53.027
same,AUC,"Pt948, LRMM",57.94
same,AUC,"Pt951, ERMM",62.878 and 62.88
same,AUC,"Pt956, NDMM",68.610 and 64.376
same,AUC,"Pt957, LRMM",82.913
same,AUC,"Pt961, NDMM",64.332 and 67.807
